Laboratory results as given in the NIST ThermoML archive (doi:10.1016/j.fluid.2005.03.032).

Experiment: xn = mol fraction of the nth substance listed
Conditions: 310.95 K; for viscosity: Capillary tube (Ostwald / Ubbelohde) method; for mass density: Vibrating tube method

CCCC [butane] + C
Gas, x2 = 0.736
Conditions	mass density [kg/m3]	viscosity [mPa·s]
13790 kPa	265	0.0305
20680 kPa	329	0.0406

C [methane] + CCCCCCCCCC
Conditions	viscosity [mPa·s]
34610 kPa, Gas, x1 = 0.9514	0.0386
34610 kPa, Liquid, x1 = 0.8064	0.12
35160 kPa, Gas, x1 = 0.9514	0.0396
35160 kPa, Liquid, x1 = 0.8064	0.12
35850 kPa, Gas, x1 = 0.9514	0.0403
35850 kPa, Liquid, x1 = 0.8064	0.121
36230 kPa, Liquid, x1 = 0.8609	0.105
36300 kPa, Liquid, x1 = 0.8609	0.102
36370 kPa, Liquid, x1 = 0.8609	0.1
36540 kPa, Gas, x1 = 0.9514	0.041
36540 kPa, Liquid, x1 = 0.8064	0.122
36540 kPa, Liquid, x1 = 0.8609	0.096
36890 kPa, Liquid, x1 = 0.8609	0.095
37230 kPa, Gas, x1 = 0.9514	0.0416
37230 kPa, Liquid, x1 = 0.8064	0.123
37230 kPa, Liquid, x1 = 0.8609	0.095
37580 kPa, Liquid, x1 = 0.8609	0.095
37920 kPa, Gas, x1 = 0.9514	0.042
37920 kPa, Liquid, x1 = 0.8064	0.124
37920 kPa, Liquid, x1 = 0.8609	0.096
